Source: ChEMBL document CHEMBL3885881, “DrugMatrix”

Organism: Rattus norvegicus
Test: DrugMatrix - Regimen: Daily Repeat
Assay type: toxicity, organism-based, Sprague-Dawley
Set-up: regimen Daily Repeat, gender Male, age 6-8 weeks
Conditions: in vivo, po, route oral GAVAGE, vehicle .5 % CMC; for ABSOLUTE BASOPHIL / ABSOLUTE EOSINOPHIL / ABSOLUTE LYMPHOCYTE / ABSOLUTE MONOCYTE / ABSOLUTE SEGMENTED NEUTROPHIL / BASOPHIL / EOSINOPHIL / ERYTHROCYTE COUNT / HEMATOCRIT / HEMOGLOBIN / LEUKOCYTE COUNT / LYMPHOCYTE / MEAN CORPUSCULAR HEMOGLOBIN / MEAN CORPUSCULAR HEMOGLOBIN CONCENTRATION / MEAN CORPUSCULAR VOLUME / MONOCYTE / NEUTROPHIL / NUCLEATED RED BLOOD CELLS / PLATELET COUNT: tissue Blood; for ALANINE AMINOTRANSFERASE / ALBUMIN / ALKALINE PHOSPHATASE / ASPARTATE AMINOTRANSFERASE / BLOOD UREA NITROGEN / CARBON DIOXIDE / CHLORIDE / CHOLESTEROL / CREATINE PHOSPHOKINASE / CREATININE / GLUCOSE / LACTATE DEHYDROGENASE / LIPASE / PHOSPHORUS / POTASSIUM / SODIUM / TOTAL BILIRUBIN / TOTAL PROTEIN / URIC ACID: tissue Plasma
[1] = 0 mg/kg, 72 h, dose level Control, time 3 day
[2] = 0 mg/kg, 120 h, dose level Control, time 5 day
[3] = 40 mg/kg, 72 h, dose level Low, time 3 day

C[C@@](Cc1ccc(O)c(O)c1)(NN)C(=O)O.O [CARBIDOPA]
ABSOLUTE BASOPHIL [1]: 0 CELLS/uL
ABSOLUTE EOSINOPHIL [1]: 222.83 CELLS/uL
ABSOLUTE LYMPHOCYTE [1]: 14453 CELLS/uL
ABSOLUTE MONOCYTE [1]: 0 CELLS/uL
ABSOLUTE SEGMENTED NEUTROPHIL [1]: 1490.83 CELLS/uL
BASOPHIL [1]: 0%
EOSINOPHIL [1]: 1.33%
ERYTHROCYTE COUNT [1]: 5.76 x10E6/uL
HEMATOCRIT [1]: 36.52%
HEMOGLOBIN [1]: 13.45 G/DL
LEUKOCYTE COUNT [1]: 16.17 x10E3/uL
LYMPHOCYTE [1]: 89.33%
MEAN CORPUSCULAR HEMOGLOBIN [1]: 23.37 pg
MEAN CORPUSCULAR HEMOGLOBIN CONCENTRATION [1]: 36.85 G/DL
MEAN CORPUSCULAR VOLUME [1]: 63.47 fL
MONOCYTE [1]: 0%
NEUTROPHIL [1]: 9.33%
NUCLEATED RED BLOOD CELLS [1]: 0 /100WBC
PLATELET COUNT [1]: 1239.5 x10E3/uL
ALANINE AMINOTRANSFERASE [1]: 43.83 u/L
ALBUMIN [1]: 4.27 G/DL
ALKALINE PHOSPHATASE [1]: 398.83 u/L
ASPARTATE AMINOTRANSFERASE [1]: 81.17 u/L
BLOOD UREA NITROGEN [1]: 17.67 mg/dL
CARBON DIOXIDE [1]: 27.5 mmol/L
CHLORIDE [1]: 99.17 MEQ/L
CHOLESTEROL [1]: 74 mg/dL
CREATINE PHOSPHOKINASE [1]: 331.5 u/L
CREATININE [1]: 0.2 mg/dL
GLUCOSE [1]: 171.33 mg/dL
LACTATE DEHYDROGENASE [1]: 241.67 u/L
LIPASE [1]: 9.5 u/L
PHOSPHORUS [1]: 12.25 mg/dL
POTASSIUM [1]: 6.33 MEQ/L
SODIUM [1]: 141.28 MEQ/L
TOTAL BILIRUBIN [1]: 0.15 mg/dL
TOTAL PROTEIN [1]: 5.98 G/DL
URIC ACID [1]: 1.63 mg/dL
ABSOLUTE BASOPHIL [2]: 0 CELLS/uL
ABSOLUTE EOSINOPHIL [2]: 148.67 CELLS/uL
ABSOLUTE LYMPHOCYTE [2]: 16020.5 CELLS/uL
ABSOLUTE MONOCYTE [2]: 29.17 CELLS/uL
ABSOLUTE SEGMENTED NEUTROPHIL [2]: 1468.33 CELLS/uL
BASOPHIL [2]: 0%
EOSINOPHIL [2]: 1%
ERYTHROCYTE COUNT [2]: 5.78 x10E6/uL
HEMATOCRIT [2]: 35.77%
HEMOGLOBIN [2]: 13.4 G/DL
LEUKOCYTE COUNT [2]: 17.67 x10E3/uL
LYMPHOCYTE [2]: 90.5%
MEAN CORPUSCULAR HEMOGLOBIN [2]: 23.22 pg
MEAN CORPUSCULAR HEMOGLOBIN CONCENTRATION [2]: 37.47 G/DL
MEAN CORPUSCULAR VOLUME [2]: 61.92 fL
MONOCYTE [2]: 0.17%
NEUTROPHIL [2]: 8.33%
NUCLEATED RED BLOOD CELLS [2]: 0.17 /100WBC
PLATELET COUNT [2]: 1255.5 x10E3/uL
ALANINE AMINOTRANSFERASE [2]: 46.5 u/L
ALBUMIN [2]: 4.38 G/DL
ALKALINE PHOSPHATASE [2]: 336 u/L
ASPARTATE AMINOTRANSFERASE [2]: 76.5 u/L
BLOOD UREA NITROGEN [2]: 20 mg/dL
CARBON DIOXIDE [2]: 27.5 mmol/L
CHLORIDE [2]: 101 MEQ/L
CHOLESTEROL [2]: 71.33 mg/dL
CREATINE PHOSPHOKINASE [2]: 231.83 u/L
CREATININE [2]: 0.37 mg/dL
GLUCOSE [2]: 168.83 mg/dL
LACTATE DEHYDROGENASE [2]: 174 u/L
LIPASE [2]: 8.67 u/L
PHOSPHORUS [2]: 11.48 mg/dL
POTASSIUM [2]: 6.82 MEQ/L
SODIUM [2]: 143.8 MEQ/L
TOTAL BILIRUBIN [2]: 0.2 mg/dL
TOTAL PROTEIN [2]: 5.98 G/DL
URIC ACID [2]: 1.83 mg/dL
ABSOLUTE BASOPHIL [3]: 0 CELLS/uL
ABSOLUTE EOSINOPHIL [3]: 143.67 CELLS/uL
ABSOLUTE LYMPHOCYTE [3]: 13232.67 CELLS/uL
ABSOLUTE MONOCYTE [3]: 0 CELLS/uL
ABSOLUTE SEGMENTED NEUTROPHIL [3]: 1090.33 CELLS/uL
BASOPHIL [3]: 0%
EOSINOPHIL [3]: 1%
ERYTHROCYTE COUNT [3]: 5.57 x10E6/uL
HEMATOCRIT [3]: 35.7%
HEMOGLOBIN [3]: 13.3 G/DL
LEUKOCYTE COUNT [3]: 14.47 x10E3/uL
LYMPHOCYTE [3]: 91.67%
MEAN CORPUSCULAR HEMOGLOBIN [3]: 23.87 pg
MEAN CORPUSCULAR HEMOGLOBIN CONCENTRATION [3]: 37.27 G/DL
MEAN CORPUSCULAR VOLUME [3]: 64.03 fL
MONOCYTE [3]: 0%
NEUTROPHIL [3]: 7.33%
NUCLEATED RED BLOOD CELLS [3]: 0 /100WBC
PLATELET COUNT [3]: 1331.33 x10E3/uL
ALANINE AMINOTRANSFERASE [3]: 40.33 u/L
ALBUMIN [3]: 4.27 G/DL
ALKALINE PHOSPHATASE [3]: 388.33 u/L
ASPARTATE AMINOTRANSFERASE [3]: 77 u/L
BLOOD UREA NITROGEN [3]: 14 mg/dL
CARBON DIOXIDE [3]: 29 mmol/L
CHLORIDE [3]: 100.67 MEQ/L
CHOLESTEROL [3]: 72.33 mg/dL
CREATINE PHOSPHOKINASE [3]: 210.67 u/L
CREATININE [3]: 0.21 mg/dL
GLUCOSE [3]: 156 mg/dL
LACTATE DEHYDROGENASE [3]: 151.33 u/L
LIPASE [3]: 8.33 u/L
PHOSPHORUS [3]: 12.9 mg/dL
POTASSIUM [3]: 6.71 MEQ/L
SODIUM [3]: 144.3 MEQ/L
TOTAL BILIRUBIN [3]: 0.23 mg/dL
TOTAL PROTEIN [3]: 5.9 G/DL
URIC ACID [3]: 1.83 mg/dL
